# Reference: patent US20210121493A1, “METHODS FOR TREATING LIVER DISEASES” (Cedars-Sinai Medical Center, priority 2017, published 2021)
# Several values for one entry are separate records, joined by “and”; a condition that tells them apart may be missing. Equal entries are not always repeated.
# How the values were obtained:
# HepG2 cell line = assay: Growth of HepG2 cells by BrdU incorporation; format: cell-based, human
# Protocol: HepG2 cells were treated with 100 μM SAMe, 10 μM OCA individually or combined for 24 hours. Growth was determined using BrdU incorporation. SAMe was mixed in saline and OCA was mixed in DMSO (0.1% final), which yielded the same values. As shown in Table 1 and FIG. 2, while OCA alone induced growth of the cancer cell line, SAMe inhibited growth of the cancer cell line even in the presence of OCA. SAMe, OCA and SAMe+OCA were 58.65%, 124.05% and 89.5%, respectively, of their respective controls.
# (§1) HepG2 (immortalized cell line consisting of human liver carcinoma cells) cells were treated with 100 μM SAMe, 10 nM GW4064 individually or combined for 24 hours. Growth was determined using BrdU incorporation. SAMe was mixed in saline and GW4064 was mixed in DMSO (0.1% final), which yielded the same values. As shown in Table 2 and FIG. 3, while GW4064 alone induced growth of the cancer cell line, SAMe inhibited growth of the cancer cell line even in the presence of GW4064. SAMe, GW4064 and SAMe+GW4064 were 75.52%, 155.70% and 116.97%, respectively, of their respective controls.
# as §1, with “Tropifexor” for “GW4064”, “Tropifexor.” for “GW4064.”, “SAMe+Tropifexor” for “SAMe+GW4064”, “151.04%” for “155.70%”, “114.77%,” for “116.97%,”
# MAFG = assay: expression of the oncogene MAFG
# [1] = tested on: MzChA-1 (cholangiocarcinoma) cells or HepG2 cells; assay: xenograft mice models, tumor volume; format: in vivo; details: SAMe 100 mg/kg/day orally
# Protocol: Mice were injected with MzChA-1 (cholangiocarcinoma) cells or HepG2 (immortalized cell line consisting of human liver carcinoma cells) cells. In mice treated with OCA, 30/mg/kg/day of OCA was administered orally. In mice treated with SAMe, 100 mg/kg/day was administered orally.
# [2] = HepG2, 10 μM OCA in DMSO, 24 hours
# [3] = HepG2, 100 μM SAMe in saline, 24 hours
# [4] = HepG2, 100 μM SAMe, 24 hours (Example 2)
# [5] = HepG2, 10 nM Tropifexor, 24 hours
# [6] = HepG2, 10 nM Tropifexor, 24 hours, listed as Tropi
structure (smiles),measurement,setting,value
CC(C)c1onc(-c2c(Cl)cccc2Cl)c1COc1ccc(/C=C/c2cccc(C(=O)O)c2)c(Cl)c1 [GW4064],"BrdU Incorporation OD540 nm, AVE","HepG2 cell line; HepG2, 10 nM GW4064, 24 hours",0.1502
same,"BrdU Incorporation, % of respective controls","HepG2 cell line; HepG2, 10 nM GW4064, 24 hours",155.70%
same,"BrdU Incorporation, % of respective controls","HepG2 cell line; HepG2, 10 nM GW4064, 24 hours, listed as GW",155.6995%
"CC[C@H]1[C@@H](O)[C@@H]2[C@H](CC[C@]3(C)[C@@H]([C@H](C)CCC(=O)O)CC[C@@H]23)[C@@]2(C)CC[C@@H](O)C[C@@H]12 [OCA, 6α-ethyl-chenodeoxycholic acid]","BrdU incorporation, Ave",HepG2 cell line; [2],0.18
same,"BrdU incorporation, single readings",HepG2 cell line; [2],0.181 and 0.175 and 0.202 and 0.186 and 0.162 and 0.177
same,"BrdU Incorporation, % of respective controls","HepG2 cell line; HepG2, 10 μM OCA, 24 hours",124.05%
"C[S+](CC[C@H](N)C(=O)O)C[C@H]1O[C@@H](n2cnc3c(N)ncnc32)[C@H](O)[C@@H]1O (stereo partly drawn) [SAMe, S-adenosylmethionine]",effect on expression of MAFG,MAFG,decreases expression of MAFG
same,tumor volume versus control group,[1],lower than the control group
same,"BrdU incorporation, Ave",HepG2 cell line; [3],0.09
same,"BrdU incorporation, single readings",HepG2 cell line; [3],0.103 and 0.089 and 0.101 and 0.055 and 0.075
same,"BrdU Incorporation, % of respective controls","HepG2 cell line; HepG2, 100 μM SAMe, 24 hours (Example 1)",58.65%
same,"BrdU Incorporation OD540 nm, AVE",HepG2 cell line; [4],0.07287
same,"BrdU Incorporation OD540 nm, single readings",HepG2 cell line; [4],0.065 and 0.066 and 0.064 and 0.072 and 0.059 and 0.113 and 0.08
same,"BrdU Incorporation, % of respective controls",HepG2 cell line; [4],75.52%
O=C(O)c1cc(F)c2nc(N3[C@@H]4CC[C@H]3C[C@@H](OCc3c(-c5ccccc5OC(F)(F)F)noc3C3CC3)C4)sc2c1 [Tropifexor],"BrdU Incorporation OD540 nm, AVE",HepG2 cell line; [5],0.1457
same,"BrdU Incorporation, % of respective controls",HepG2 cell line; [5],151.04%
same,"BrdU Incorporation OD540 nm, single readings",HepG2 cell line; [6],0.153 and 0.121 and 0.134 and 0.125 and 0.105 and 0.173 and 0.202
same,"BrdU Incorporation, % of respective controls",HepG2 cell line; [6],151.0363%
